Assay: mn = molality of the nth substance listed, in mol/kg
Settings: 101.3 kPa, Liquid

COC(=O)[C@@H](N)C(C)C.Cl [methyl L-valinate hydrochloride] + O
Settings | speed of sound [m/s]
278.15 K, Frequency=2 MHz, Linear variable-path acoustic interferometer, m1 = 0.0389 | 1431.7
278.15 K, Frequency=2 MHz, Linear variable-path acoustic interferometer, m1 = 0.0499 | 1433.3
278.15 K, Frequency=2 MHz, Linear variable-path acoustic interferometer, m1 = 0.0592 | 1434.2
278.15 K, Frequency=2 MHz, Linear variable-path acoustic interferometer, m1 = 0.0705 | 1436.3
278.15 K, Frequency=2 MHz, Linear variable-path acoustic interferometer, m1 = 0.0811 | 1437.4
278.15 K, Frequency=2 MHz, Linear variable-path acoustic interferometer, m1 = 0.0888 | 1438.7
278.15 K, Frequency=2 MHz, Linear variable-path acoustic interferometer, m1 = 0.1015 | 1441.1
278.15 K, Frequency=2 MHz, Linear variable-path acoustic interferometer, m1 = 0.1094 | 1441.3
278.15 K, Frequency=2 MHz, Linear variable-path acoustic interferometer, m1 = 0.1204 | 1443.8
278.15 K, Frequency=2 MHz, Linear variable-path acoustic interferometer, m1 = 0.1307 | 1445.3
278.15 K, Frequency=2 MHz, Linear variable-path acoustic interferometer, m1 = 0.1428 | 1446.5
278.15 K, Frequency=2 MHz, Linear variable-path acoustic interferometer, m1 = 0.1528 | 1448
288.15 K, Frequency=3 MHz, Sing-around technique in a fixed-path interferometer, m1 = 0.0507 | 1472.3
288.15 K, Frequency=3 MHz, Sing-around technique in a fixed-path interferometer, m1 = 0.0607 | 1473.5
288.15 K, Frequency=3 MHz, Sing-around technique in a fixed-path interferometer, m1 = 0.0699 | 1474.5
288.15 K, Frequency=3 MHz, Sing-around technique in a fixed-path interferometer, m1 = 0.0798 | 1475.7
288.15 K, Frequency=3 MHz, Sing-around technique in a fixed-path interferometer, m1 = 0.09 | 1476.9
288.15 K, Frequency=3 MHz, Sing-around technique in a fixed-path interferometer, m1 = 0.0999 | 1478.3
288.15 K, Frequency=3 MHz, Sing-around technique in a fixed-path interferometer, m1 = 0.1099 | 1479.2
288.15 K, Frequency=3 MHz, Sing-around technique in a fixed-path interferometer, m1 = 0.1201 | 1480.4
288.15 K, Frequency=3 MHz, Sing-around technique in a fixed-path interferometer, m1 = 0.1295 | 1481.6
288.15 K, Frequency=3 MHz, Sing-around technique in a fixed-path interferometer, m1 = 0.1399 | 1482.8
288.15 K, Frequency=3 MHz, Sing-around technique in a fixed-path interferometer, m1 = 0.1497 | 1484.3
288.15 K, Frequency=3 MHz, Sing-around technique in a fixed-path interferometer, m1 = 0.16 | 1485.9
298.15 K, Frequency=3 MHz, Sing-around technique in a fixed-path interferometer, m1 = 0.0405 | 1501.4
298.15 K, Frequency=3 MHz, Sing-around technique in a fixed-path interferometer, m1 = 0.0504 | 1502.5
298.15 K, Frequency=3 MHz, Sing-around technique in a fixed-path interferometer, m1 = 0.06 | 1503.7
298.15 K, Frequency=3 MHz, Sing-around technique in a fixed-path interferometer, m1 = 0.0703 | 1504.9
298.15 K, Frequency=3 MHz, Sing-around technique in a fixed-path interferometer, m1 = 0.0804 | 1505.9
298.15 K, Frequency=3 MHz, Sing-around technique in a fixed-path interferometer, m1 = 0.0903 | 1507.1
298.15 K, Frequency=3 MHz, Sing-around technique in a fixed-path interferometer, m1 = 0.1001 | 1508.1
298.15 K, Frequency=3 MHz, Sing-around technique in a fixed-path interferometer, m1 = 0.1103 | 1509.6
298.15 K, Frequency=3 MHz, Sing-around technique in a fixed-path interferometer, m1 = 0.12 | 1510.3
298.15 K, Frequency=3 MHz, Sing-around technique in a fixed-path interferometer, m1 = 0.1305 | 1511.4
298.15 K, Frequency=3 MHz, Sing-around technique in a fixed-path interferometer, m1 = 0.1401 | 1513
298.15 K, Frequency=3 MHz, Sing-around technique in a fixed-path interferometer, m1 = 0.1514 | 1513.8

Settings | mass density [kg/m3]
278.15 K, Pycnometric method, m1 = 0.0389 | 1001.17
278.15 K, Pycnometric method, m1 = 0.0499 | 1001.51
278.15 K, Pycnometric method, m1 = 0.0592 | 1001.8
278.15 K, Pycnometric method, m1 = 0.0705 | 1002.15
278.15 K, Pycnometric method, m1 = 0.0811 | 1002.48
278.15 K, Pycnometric method, m1 = 0.0888 | 1002.72
278.15 K, Pycnometric method, m1 = 0.1015 | 1003.1
278.15 K, Pycnometric method, m1 = 0.1094 | 1003.35
278.15 K, Pycnometric method, m1 = 0.1204 | 1003.7
278.15 K, Pycnometric method, m1 = 0.1307 | 1004
278.15 K, Pycnometric method, m1 = 0.1428 | 1004.38
278.15 K, Pycnometric method, m1 = 0.1528 | 1004.7
288.15 K, Vibrating tube method, m1 = 0.0507 | 1000.66
288.15 K, Vibrating tube method, m1 = 0.0607 | 1000.96
288.15 K, Vibrating tube method, m1 = 0.0699 | 1001.25
288.15 K, Vibrating tube method, m1 = 0.0798 | 1001.55
288.15 K, Vibrating tube method, m1 = 0.09 | 1001.87
288.15 K, Vibrating tube method, m1 = 0.0999 | 1002.17
288.15 K, Vibrating tube method, m1 = 0.1099 | 1002.46
288.15 K, Vibrating tube method, m1 = 0.1201 | 1002.78
288.15 K, Vibrating tube method, m1 = 0.1295 | 1003.07
288.15 K, Vibrating tube method, m1 = 0.1399 | 1003.4
288.15 K, Vibrating tube method, m1 = 0.1497 | 1003.7
288.15 K, Vibrating tube method, m1 = 0.16 | 1004
298.15 K, Vibrating tube method, m1 = 0.0405 | 998.23
298.15 K, Vibrating tube method, m1 = 0.0504 | 998.52
298.15 K, Vibrating tube method, m1 = 0.06 | 998.78
298.15 K, Vibrating tube method, m1 = 0.0703 | 999.08
298.15 K, Vibrating tube method, m1 = 0.0804 | 999.37
298.15 K, Vibrating tube method, m1 = 0.0903 | 999.66
298.15 K, Vibrating tube method, m1 = 0.1001 | 999.92
298.15 K, Vibrating tube method, m1 = 0.1103 | 1000.24
298.15 K, Vibrating tube method, m1 = 0.12 | 1000.51
298.15 K, Vibrating tube method, m1 = 0.1305 | 1000.78
298.15 K, Vibrating tube method, m1 = 0.1401 | 1001.06
298.15 K, Vibrating tube method, m1 = 0.1514 | 1001.39

O [water] + COC(=O)[C@@H](N)C(C)C.Cl
Settings | speed of sound [m/s]
278.15 K, Frequency=2 MHz, Linear variable-path acoustic interferometer, m2 = 0 | 1426.2

Settings | mass density [kg/m3]
278.15 K, Pycnometric method, m2 = 0 | 999.96

O [water] + COC(=O)[C@H](C)N.Cl
Settings | speed of sound [m/s]
278.15 K, Frequency=2 MHz, Linear variable-path acoustic interferometer, m2 = 0 | 1426.2

Settings | mass density [kg/m3]
278.15 K, Pycnometric method, m2 = 0 | 999.96

Source: the NIST ThermoML archive (doi:10.1016/j.jct.2016.10.016)
